PMC5650142, “GPR40 partial agonists and AgoPAMs: Differentiating effects on glucose and hormonal secretions in the rodent” (PLoS ONE, 2017)
Where “and” joins values, the source holds several entries; their conditions need not be identical. Identical values can stand only once.

How the values were obtained:
[1] = tested on: GK rats; assay: 13C-labeled glucose tolerance test (tissue 13C-glycogen); format: in vivo; settings: GK rat, 13C-GTT after sub-chronic treatment; vs MK-8666 or vehicle
Description: On day 0, GK rats were selected and sorted into treatment groups based on ambient glucose measured via glucometer at 1 h post lights on. MK-8666 at 30 mg/kg was administered in feed (Research Diets) and provided ad lib on day 0. On days 1–6, rats were dosed via oral gavage (PO) at a volume of 5 ml/kg daily at approximately 12:30 PM with either vehicle (0.5% methylcellulose) or AP1 at 10 mg/kg. Rats from the MK-8666 group were administered vehicle PO at this time. On day 7, ambient glucose was measured 1 hr post lights on and food was removed. After approximately 5 hrs fasting, glucose was measured at time = - 60 min, followed by PO administration of vehicle or AP1. […] Blood glucose was then measured at t = 20, 40, 60, 120 minutes post challenge. […]
Glycogen is a primary site of glucose disposal in both liver and muscle; however glycogen was not preserved in our tissue extraction protocol. To quantify tissue 13C-glycogen, a separate piece of tissue from each sample was analyzed. […] The resulting glycogen-derived glucose solution was analyzed for total glucose using a glucose oxidase / horseradish peroxidase assay kit and fluorescence-based product detection according to the manufacturers’ instructions (BioVision Glycogen Assay Kit, Milpitas, CA).

[2] = tested on: GK rats; assay: Endogenous glucose production in vivo (2H/13C dual tracer); design: species or system rat;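 for Glucose production, EGP Total: micromoles per kg body weight per minute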;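 for Glucose production, Glycerol: absolute flux in micromoles per kg per minute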;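 for Glucose production, Glycogen: absolute flux in micromoles per kg per minute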;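 for Glucose production, TCA: absolute flux in micromoles per kg per minute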
Description: To evaluate the effects of the GPR40 partial and AgoPAM compounds on EGP in vivo, a 2H/13C dual tracer approach was used to calculate EGP and its contributing sources. Following the chronic treatments described above, 0.9% NaCl salinated deuterium oxide (D2O, Sigma-Aldrich, St. Louis, MO) was administered to all animals via intraperitoneal (IP) injection at dose volume of 20 ml/kg at 1 hr post lights on. Animals were then placed in clean cages and food was removed. After a 5 hour fast, blood glucose was measured and animals were dosed with 50 mg/kg [U-13C] glucose (Sigma-Aldrich, St. Louis, MO) IP at 5 ml/kg. Blood was collected via tail snip at time points from 60–150 min post treatment to measure blood glucose (via glucometer) as well as endogenous (12C-glucose) and exogenous (13C-glucose) via GCMS. Following the last tail blood collection, rats were anesthetized with isoflurane and cardiac blood was collected into K2EDTA tubes (Becton, Dickinson and Co., Franklin Lakes, NJ).
The serially collected blood samples were analyzed for 13C-glucose enrichment using GC-MS analysis. The % 13C glucose enrichments were then combined with the total glucose readings to calculate the concentration of 13C-glucose, and these values were modeled with a two-compartment model of whole body glucose metabolism to calculate the average EGP for the period from 0–150 minutes.
Terminal blood samples were analyzed for relative 2H enrichment in plasma glucose using the monoacetone glucose method. Briefly, samples were extracted with 70% perchloric acid at a ratio of 50 μl perchloric acid per 1 ml plasma and centrifuged at 25,000 rcf for 10 min at 4°C. The supernatant was collected and the pH was adjusted to 6–8 using aqueous KOH. The samples were then lyophilized overnight. To convert plasma glucose to monoacetone glucose (MAG), acetone and concentrated sulfuric acid were added to the lyophilized samples and stirred for 4 hours at room temperature. Water was then added and the pH adjusted to 2.0 with 3M Na2CO3. Samples were stirred moderately for 18 hours at room temperature, the pH was adjusted to 7 with 3M Na2CO3, and the samples were completely dried by speed vacuum concentration. The resulting MAG samples were then extracted in hot ethyl acetate, dried overnight under a stream of N2 gas, and purified using Discovery DSC-18 SPE columns (6 ml, 1 g bed weight). For the SPE protocol, MAG samples were reconstituted in 3 ml water and passed over the columns which were pre-washed with 2 ml methanol. The columns were rinsed twice with 1 ml water and the MAG was eluted with 5% acetonitrile. The acetonitrile eluent was then transferred to a glass scintillation vial and freeze dried. Purified MAG samples were solubilized in 180 μl 90% acetonitrile for 2H NMR analysis which was performed using the lock channel of a 950 MHz Bruker NMR spectrometer (David H Murdock Research Institute, DHMRI Kannapolis, NC). Acquisition parameters were as follows: 90° pulse, D1 = 1 s, 1H broadband decoupling, NS = 3600, acquisition time ~ 1 hr. The 2H NMR spectra of the MAG samples were then analyzed using Matlab (The Mathworks Inc, Natick, MA) to model the NMR peaks with a Lorentzian lineshape, and the results were used to calculate integrals for each of the seven NMR resonances in the MAG spectrum. Peaks 2, 5, and 6s were then used to calculate the relative sources of EGP (i.e. gluconeogenesis from TCA cycle substrates, glucose production from triose phosphates, and glycogenolysis) and these values were combined with the total EGP measurement to calculate absolute fluxes of glucose production.

[3] = GK rats, 30 mpk, individual animal values (data for Fig 8), 30 mg/kg

Q: COc1ccc(F)c(-c2ccc([C@@H]3CCc4ccc([C@H](C5CC5)[C@H](C)C(=O)O)cc4O3)cc2)c1 [AP1] was tested. Which “skeletal muscle 13C-glycogen levels” value [1] did it give?
A: increased

Q: Cc1cc(OCCCS(C)(=O)=O)cc(C)c1-c1cccc(COc2cc3c(cn2)[C@H]2[C@@H](C3)[C@@H]2C(=O)O)c1 [MK-8666] was tested. Which “endogenous glucose production (EGP)” value ([2]; GK rat, following chronic treatment) did it give?
A: reduced

Q: And the “Glucose production, EGP Total” value [2, 3]?
A: 47.3366 µmol/kg/min and 49.7015 µmol/kg/min and 23.1675 µmol/kg/min and 46.5921 µmol/kg/min and 49.3944 µmol/kg/min and 59.3105 µmol/kg/min and 53.4963 µmol/kg/min

Q: And the “Glucose production, Glycerol” value [2, 3]?
A: 8.397 µmol/kg/min and 6.008 µmol/kg/min and 2.752 µmol/kg/min and 6.734 µmol/kg/min and 8.91 µmol/kg/min and 9 µmol/kg/min and 9.76 µmol/kg/min

Q: And the “Glucose production, Glycogen” value [2, 3]?
A: 15.2782 µmol/kg/min and 19.9182 µmol/kg/min and 7.082 µmol/kg/min and 20.1227 µmol/kg/min and 18.1009 µmol/kg/min and 21.3139 µmol/kg/min and 17.6544 µmol/kg/min

Q: And the “Glucose production, TCA” value [2, 3]?
A: 23.6618 µmol/kg/min and 23.7752 µmol/kg/min and 13.3332 µmol/kg/min and 19.7357 µmol/kg/min and 22.3838 µmol/kg/min and 28.9962 µmol/kg/min and 26.0816 µmol/kg/min
